Our source for the CC50 values is article PMC12030355 (Pharmaceuticals, 2025).

This data set is described as follows: in vitro. Set-up: MTT cytotoxicity assay, absorbance 450 nm, normal cell line. Particulars: human, wi-38 cells; read-out: Cytotoxicity IC50 uM WI38. The protocol: 3.2.3. […] The remaining substances and tools were from either Sigma or Invitrogen. Before performing the MTT experiment, cells were seeded on a 96-well plate at a density of 1.2–1.8 10,000 cells/well in a volume of 100 μL complete growth media + 100 μL of the test substance each well. Multiwell plates are an excellent choice for using the MTT method, which is used to track in vitro cytotoxicity. Using cells in the log phase of growth and keeping the ultimate cell density around 10^6 cells/cm^2 will produce the best results. Every test should include a blank with a full medium but no cells. Cultures should be moved from the incubator into a sterile workspace, such as a laminar flow hood. Each MTT [M-5655] vial should be reconstituted with 3 mL of medium or balanced salt solution devoid of phenol red and serum. 10% of the volume of the culture medium should be added to the reconstituted MTT solution. Incubate cultures again for 2–4 h, depending on the type of cell and the maximal cell density. […] After the incubation period, remove the cultures from the incubator and apply MTT Solubilization Solution [M-8910] in a quantity equal to the volume of the original culture media to dissolve the formazan crystals that formed. In a gyratory shaker, gentle blending will improve solubility. Trituration, or pipetting up and down, may occasionally be necessary to completely dissolve the MTT formazan crystals, especially in thick cultures at a wavelength of 450 nm, and measure the absorbance spectrophotometrically. The background absorbance of multiwell plates at 690 nm were subtracted from 450 nm data. A suitable plate 7. Incubate cultures at 37°C for 24 hrs. 8-After treatment of cells with the serial concentrations of the compound to be tested incubation is carried out for 48 h at 37 °C ,then the plates are to be examined under the inverted microscope and proceed for the MTT assay MTT – Cytotoxicity assay protocol The MTT method of monitoring in vitro cytotoxicity is well suited for use with multiwell plates. For best results, cells in the log phase of growth should be employed and final cell number should not exceed 10^6 cells/cm2. Each test should include a blank containing complete medium without cells. 1. Remove cultures from incubator into laminar flow hood or other sterile work area.
Consider `CCn1cc(C(=O)O)c(=O)c2cc(F)c(N3CCNCC3)cc21` [compound 1, norfloxacin], for which the CC50 at 48 h is 54.6 µM.
Next, `CCOC(=O)N1CCN(c2cc3c(cc2F)c(=O)c(C(=O)O)cn3CC)CC1` [compound 7, 7-(4-(Ethoxycarbonyl)piperazin-1-yl)-1-ethyl-6-fluoro-4-oxo-1,4-dihydroquinolin-3-carboxylic acid]: 47.9 µM; `CCn1cc(-c2nc3ccccc3s2)c(=O)c2cc(F)c(N3CCN(C(=O)CCl)CC3)cc21` [compound 16, 3-(Benzo[d]thiazol-2-yl)-7-(4-(2-chloroacetyl)piperazin-1-yl)-1-ethyl-6-fluoroquinolin-4(1H)-one]: 51.2 µM.
With `COc1cccc2c1C(=O)c1c(O)c3c(c(O)c1C2=O)C[C@@](O)(C(=O)CO)C[C@@H]3O[C@H]1C[C@H](N)[C@H](O)[C@H](C)O1` [Doxorubicin], the CC50 at 48 h is 14.1 µM.
As for `CCn1cc(C(=O)O)c(=O)c2cc(F)c(N3CCN(C(=O)CC#N)CC3)cc21` [compound 6], the figure is 34.1 µM.
Next, `CCn1cc(-c2nc3ccccc3s2)c(=O)c2cc(F)c(N3CCNCC3)cc21` [compound 15, 3-(Benzo[d]thiazol-2-yl)-1-ethyl-6-fluoro-7-(piperazin-1-yl)quinolin-4(1H)-one]: 39.2 µM.
